Laboratory results published in paper PMC5218480 (PLoS ONE, 2017).

Test system: MV-4-11 cells
Experiment: Gene expression microarray analysis (Affymetrix PrimeView) and GSEA
Assay type: cell-based, human
Parameters: RFU PODN (11730768_x_at) / Fold change /veh PODN (11730768_x_at) / RFU LINC00158 (11744669_a_at) / Fold change /veh LINC00158 (11744669_a_at) / RFU DUSP10 (11751237_a_at) / Fold change /veh DUSP10 (11751237_a_at) / RFU ID3 (11757404_x_at) / Fold change /veh ID3 (11757404_x_at) / RFU PLEKHG5 (11737974_s_at) / Fold change /veh PLEKHG5 (11737974_s_at) / RFU LRRC4B (11730491_at) / Fold change /veh LRRC4B (11730491_at) / RFU GIMAP4 (11747438_a_at) / Fold change /veh GIMAP4 (11747438_a_at) / RFU KRT8 (11758183_x_at) / Fold change /veh KRT8 (11758183_x_at) / RFU CNN1 (11734310_a_at) / Fold change /veh CNN1 (11734310_a_at) / RFU VPS37D (11726825_at) / Fold change /veh VPS37D (11726825_at) / RFU C10orf10 (11716522_x_at) / Fold change /veh C10orf10 (11716522_x_at) / RFU KIR2DL2 /// KIR2DL4 /// KIR2DL5A /// KIR2DL5B /// KIR2DS1 /// KIR2DS2 /// KIR2DS3 /// KIR2DS4 /// KIR3DL3 /// KIR3DL3 /// KIR3DS1 (11738374_at) / Fold change /veh KIR2DL2 /// KIR2DL4 /// KIR2DL5A /// KIR2DL5B /// KIR2DS1 /// KIR2DS2 /// KIR2DS3 /// KIR2DS4 /// KIR3DL3 /// KIR3DL3 /// KIR3DS1 (11738374_at) / RFU C1QL1 (11718748_at) / Fold change /veh C1QL1 (11718748_at) / RFU TMPRSS4 (11747572_a_at) / Fold change /veh TMPRSS4 (11747572_a_at) / RFU HAMP (11756126_x_at) / Fold change /veh HAMP (11756126_x_at) / RFU RNFT2 (11725882_a_at) / Fold change /veh RNFT2 (11725882_a_at) / RFU NR4A2 (11747474_a_at) / Fold change /veh NR4A2 (11747474_a_at) / RFU ABCC12 (11746883_a_at) / Fold change /veh ABCC12 (11746883_a_at) / RFU TMEM136 (11760407_x_at) / Fold change /veh TMEM136 (11760407_x_at) / RFU CLDN22 /// WWC2 (11732394_at) / Fold change /veh CLDN22 /// WWC2 (11732394_at) / RFU HLA-DPB1 (11760878_x_at) / Fold change /veh HLA-DPB1 (11760878_x_at) / RFU SPINT1 (11716480_a_at) / Fold change /veh SPINT1 (11716480_a_at) / RFU GAP43 (11754022_s_at) / Fold change /veh GAP43 (11754022_s_at) / RFU A4GNT (11735810_at) / Fold change /veh A4GNT (11735810_at) / RFU PRB3 (11715151_x_at) / Fold change /veh PRB3 (11715151_x_at) / RFU TUBB4B (11761932_at) / Fold change /veh TUBB4B (11761932_at) / RFU CAPN14 (11732068_a_at) / Fold change /veh CAPN14 (11732068_a_at) / RFU TMCC2 (11721928_a_at) / Fold change /veh TMCC2 (11721928_a_at) / RFU IRGQ (11745062_a_at) / Fold change /veh IRGQ (11745062_a_at) / RFU FAM174B (11720279_a_at) / Fold change /veh FAM174B (11720279_a_at) / RFU TMPRSS4 (11748680_a_at) / Fold change /veh TMPRSS4 (11748680_a_at) / RFU FAM212B (11763350_a_at) / Fold change /veh FAM212B (11763350_a_at) / RFU PLEKHG5 (11743358_a_at) / Fold change /veh PLEKHG5 (11743358_a_at) / RFU ZSCAN30 (11745921_a_at) / Fold change /veh ZSCAN30 (11745921_a_at) / RFU CMKLR1 (11741424_a_at) / Fold change /veh CMKLR1 (11741424_a_at) / RFU LOC101060620 /// MAPK8IP1 (11723275_at) / Fold change /veh LOC101060620 /// MAPK8IP1 (11723275_at) / RFU SPTSSB (11747773_x_at) / Fold change /veh SPTSSB (11747773_x_at) / RFU PRSS12 (11739890_at) / Fold change /veh PRSS12 (11739890_at) / RFU BIN1 (11741810_x_at) / Fold change /veh BIN1 (11741810_x_at) / RFU WNT11 (11732464_a_at) / Fold change /veh WNT11 (11732464_a_at) / RFU C10orf10 (11716521_a_at) / Fold change /veh C10orf10 (11716521_a_at) / RFU C5orf56 (11738089_at) / Fold change /veh C5orf56 (11738089_at) / RFU CYB561 (11721691_x_at) / Fold change /veh CYB561 (11721691_x_at) / RFU ANKRD19P (11752326_a_at) / Fold change /veh ANKRD19P (11752326_a_at) / RFU OR2T12 /// OR2T33 /// OR2T8 (11738714_s_at) / Fold change /veh OR2T12 /// OR2T33 /// OR2T8 (11738714_s_at) / RFU VCAN (11748164_a_at) / Fold change /veh VCAN (11748164_a_at) / RFU JSRP1 (11732532_at) / Fold change /veh JSRP1 (11732532_at) / RFU KRTAP10-11 (11738290_x_at) / Fold change /veh KRTAP10-11 (11738290_x_at) / RFU MYO3A (11730013_a_at) / Fold change /veh MYO3A (11730013_a_at) / RFU EBF3 (11725865_a_at) / Fold change /veh EBF3 (11725865_a_at) / RFU CAMK2N1 (11719241_x_at) / Fold change /veh CAMK2N1 (11719241_x_at) / RFU C5orf56 (11738088_a_at) / Fold change /veh C5orf56 (11738088_a_at) / RFU OLFML3 (11715873_a_at) / Fold change /veh OLFML3 (11715873_a_at) / RFU LOC100653217 /// NTM (11731650_a_at) / Fold change /veh LOC100653217 /// NTM (11731650_a_at) / RFU MAPK11 (11762145_a_at) / Fold change /veh MAPK11 (11762145_a_at) / RFU FIZ1 (11724087_x_at) / Fold change /veh FIZ1 (11724087_x_at) / RFU OASL (11726364_x_at) / Fold change /veh OASL (11726364_x_at) / RFU SOX15 (11748057_x_at) / Fold change /veh SOX15 (11748057_x_at) / RFU CD79A (11719716_a_at) / Fold change /veh CD79A (11719716_a_at) / RFU HIST1H1D (11736915_at) / Fold change /veh HIST1H1D (11736915_at) / RFU CASKIN2 (11723855_a_at) / Fold change /veh CASKIN2 (11723855_a_at) / RFU LOC730098 (11760151_x_at) / Fold change /veh LOC730098 (11760151_x_at) / RFU OR4N2 (11742367_at) / Fold change /veh OR4N2 (11742367_at) / RFU PRRT2 (11749266_a_at) / Fold change /veh PRRT2 (11749266_a_at) / RFU SNX32 (11753110_a_at) / Fold change /veh SNX32 (11753110_a_at) / RFU CDHR5 (11726645_a_at) / Fold change /veh CDHR5 (11726645_a_at) / RFU RCAN1 (11760418_a_at) / Fold change /veh RCAN1 (11760418_a_at) / RFU FAM167A (11723789_a_at) / Fold change /veh FAM167A (11723789_a_at) / RFU FAM26E (11764081_at) / Fold change /veh FAM26E (11764081_at) / RFU ISYNA1 (11749810_s_at) / Fold change /veh ISYNA1 (11749810_s_at) / RFU ACY1 (11761880_at) / Fold change /veh ACY1 (11761880_at) / RFU 11764098_at / Fold change /veh 11764098_at / RFU SAMD14 (11745864_x_at) / Fold change /veh SAMD14 (11745864_x_at) / RFU NPB (11741838_a_at) / Fold change /veh NPB (11741838_a_at) / RFU TMPRSS6 (11731388_a_at) / Fold change /veh TMPRSS6 (11731388_a_at) / RFU KRTAP10-2 (11738614_at) / Fold change /veh KRTAP10-2 (11738614_at) / RFU ARHGAP8 /// PRR5-ARHGAP8 (11727945_x_at) / Fold change /veh ARHGAP8 /// PRR5-ARHGAP8 (11727945_x_at) / RFU KRTAP5-7 /// NADSYN1 (11734609_at) / Fold change /veh KRTAP5-7 /// NADSYN1 (11734609_at) / RFU RASL12 (11751679_a_at) / Fold change /veh RASL12 (11751679_a_at) / RFU CDKN2B (11736163_a_at) / Fold change /veh CDKN2B (11736163_a_at) / RFU PRF1 (11729649_at) / Fold change /veh PRF1 (11729649_at) / RFU, ZNF638 /// ZNF638-IT1 / Fold change vs veh, ZNF638 /// ZNF638-IT1 / RFU, PANK3 / Fold change vs veh, PANK3 / RFU, SH3YL1 / Fold change vs veh, SH3YL1 / RFU, ZEB2 / Fold change vs veh, ZEB2 / RFU, NRIP1 / Fold change vs veh, NRIP1 / RFU, PTTG1IP / Fold change vs veh, PTTG1IP / RFU, CAPN2 / Fold change vs veh, CAPN2 / RFU, MED14 / Fold change vs veh, MED14 / RFU, SNORA58 / Fold change vs veh, SNORA58 / RFU, C1orf63 / Fold change vs veh, C1orf63 / RFU, LRRFIP1 / Fold change vs veh, LRRFIP1 / RFU, NDUFAF7 / Fold change vs veh, NDUFAF7 / RFU, SLC12A2 / Fold change vs veh, SLC12A2 / RFU, IBTK / Fold change vs veh, IBTK / RFU, ESF1 / Fold change vs veh, ESF1 / Fold change vs veh, TMEM50B / RFU, TAOK1 / Fold change vs veh, TAOK1 / RFU, ACBD3 / Fold change vs veh, ACBD3 / RFU, TMA16 / Fold change vs veh, TMA16 / RFU, RWDD3 / Fold change vs veh, RWDD3 / RFU, BCAT1 / Fold change vs veh, BCAT1 / RFU, EDEM3 / Fold change vs veh, EDEM3 / RFU, TMEM33 / Fold change vs veh, TMEM33 / RFU, WDR75 / Fold change vs veh, WDR75 / RFU, AHCTF1 / Fold change vs veh, AHCTF1 / RFU, TFRC / Fold change vs veh, TFRC / RFU, ZDHHC17 / Fold change vs veh, ZDHHC17 / RFU, NOM1 / Fold change vs veh, NOM1 / RFU, ARL8B / Fold change vs veh, ARL8B / RFU, ZBTB11 / Fold change vs veh, ZBTB11 / RFU, TAMM41 / Fold change vs veh, TAMM41 / RFU, KIAA1704 /// LOC100996395 / Fold change vs veh, KIAA1704 /// LOC100996395 / RFU, ING1 / Fold change vs veh, ING1 / RFU, TRMT61B / Fold change vs veh, TRMT61B / RFU, FUBP3 / Fold change vs veh, FUBP3 / RFU, TP53 / Fold change vs veh, TP53 / RFU, TNKS2 / Fold change vs veh, TNKS2 / RFU, ZFP14 / Fold change vs veh, ZFP14 / RFU, ACTR2 / Fold change vs veh, ACTR2 / RFU, PPP3R1 / Fold change vs veh, PPP3R1 / RFU, PIK3R1 / Fold change vs veh, PIK3R1 / RFU, HNRNPA1 / Fold change vs veh, HNRNPA1 / RFU, RNF170 / Fold change vs veh, RNF170 / RFU, ZNF28 / Fold change vs veh, ZNF28 / RFU, RNGTT / Fold change vs veh, RNGTT / RFU, OGT / Fold change vs veh, OGT / RFU, BRD1 / Fold change vs veh, BRD1 / RFU, MARS / Fold change vs veh, MARS / RFU, ZNF655 / Fold change vs veh, ZNF655 / RFU, FAHD1 / Fold change vs veh, FAHD1 / RFU, BDP1 / Fold change vs veh, BDP1 / RFU, LRRCC1 / Fold change vs veh, LRRCC1 / RFU, ARID1A / Fold change vs veh, ARID1A / RFU, ZNF146 / Fold change vs veh, ZNF146 / RFU, ZNF330 / Fold change vs veh, ZNF330 / RFU, GPN3 / Fold change vs veh, GPN3 / RFU, C9orf123 / Fold change vs veh, C9orf123 / RFU, N4BP2L2 / Fold change vs veh, N4BP2L2 / RFU, ARFIP1 / Fold change vs veh, ARFIP1 / RFU, FAM179B / Fold change vs veh, FAM179B / RFU, BCL10 / Fold change vs veh, BCL10 / RFU, UHRF1BP1L / Fold change vs veh, UHRF1BP1L / RFU, BET1 / Fold change vs veh, BET1 / RFU, CNOT2 / Fold change vs veh, CNOT2 / RFU, ZNF268 / Fold change vs veh, ZNF268 / Fold change vs veh, ZNF507 / RFU, DGCR2 / Fold change vs veh, DGCR2 / RFU, WDSUB1 / Fold change vs veh, WDSUB1 / Fold change vs veh, HSP90B1 /// MIR3652 / RFU, ADSS / Fold change vs veh, ADSS / RFU, GK / Fold change vs veh, GK / RFU, ZNF148 / Fold change vs veh, ZNF148 / RFU, TAF9 / Fold change vs veh, TAF9 / RFU, SLC1A5 / Fold change vs veh, SLC1A5 / RFU, SLMO2 / Fold change vs veh, SLMO2 / RFU, ABCC4 / Fold change vs veh, ABCC4 / RFU, LOC101060439 /// RAP1B / Fold change vs veh, LOC101060439 /// RAP1B / RFU, RFX7 / Fold change vs veh, RFX7 / RFU, GTPBP10 / Fold change vs veh, GTPBP10 / RFU, CNEP1R1 / Fold change vs veh, CNEP1R1 / RFU, BIVM-ERCC5 /// ERCC5 / Fold change vs veh, BIVM-ERCC5 /// ERCC5 / RFU, ILF3 / Fold change vs veh, ILF3 / RFU 11762660_at / Fold change /veh 11762660_at / RFU VCAN (11757783_s_at) / Fold change /veh VCAN (11757783_s_at) / RFU DDX43 (11728927_at) / Fold change /veh DDX43 (11728927_at) / RFU KRT8 (11758188_x_at) / Fold change /veh KRT8 (11758188_x_at) / RFU NKD1 (11759106_at) / Fold change /veh NKD1 (11759106_at) / RFU SRD5A1 (11742802_a_at) / Fold change /veh SRD5A1 (11742802_a_at) / RFU TPSAB1 /// TPSB2 (11721975_s_at) / Fold change /veh TPSAB1 /// TPSB2 (11721975_s_at) / RFU GSTM3 (11746129_a_at) / Fold change /veh GSTM3 (11746129_a_at) / RFU IL23R (11737362_x_at) / Fold change /veh IL23R (11737362_x_at) / RFU TMEM51 (11727254_a_at) / Fold change /veh TMEM51 (11727254_a_at) / RFU PIWIL2 (11732686_x_at) / Fold change /veh PIWIL2 (11732686_x_at) / RFU ORM1 (11744905_x_at) / Fold change /veh ORM1 (11744905_x_at) / RFU CCDC152 (11743942_at) / Fold change /veh CCDC152 (11743942_at) / RFU ECM1 (11717891_a_at) / Fold change /veh ECM1 (11717891_a_at) / RFU IL23R (11748794_a_at) / Fold change /veh IL23R (11748794_a_at) / RFU TNFAIP8L3 (11732012_x_at) / Fold change /veh TNFAIP8L3 (11732012_x_at) / RFU MBOAT4 (11741988_at) / Fold change /veh MBOAT4 (11741988_at) / RFU 11764193_at / Fold change /veh 11764193_at / RFU TMEM53 (11763286_at) / Fold change /veh TMEM53 (11763286_at) / RFU MAGEB2 (11727129_at) / Fold change /veh MAGEB2 (11727129_at) / RFU TMEM200A (11744735_a_at) / Fold change /veh TMEM200A (11744735_a_at) / RFU CCDC152 (11751479_a_at) / Fold change /veh CCDC152 (11751479_a_at) / RFU FAM211A (11726209_a_at) / Fold change /veh FAM211A (11726209_a_at) / RFU RGS16 (11746705_a_at) / Fold change /veh RGS16 (11746705_a_at) / RFU VCAN (11755009_s_at) / Fold change /veh VCAN (11755009_s_at) / RFU RHOB (11743442_s_at) / Fold change /veh RHOB (11743442_s_at) / RFU RGS16 (11720943_a_at) / Fold change /veh RGS16 (11720943_a_at) / RFU RGS16 (11720944_at) / Fold change /veh RGS16 (11720944_at) / RFU, VPS4B / Fold change vs veh, VPS4B / RFU, CREB1 / Fold change vs veh, CREB1 / RFU, DNAJC13 / Fold change vs veh, DNAJC13 / RFU, GNAQ / Fold change vs veh, GNAQ / RFU, CDK5R1 / Fold change vs veh, CDK5R1 / RFU, ZRANB3 / Fold change vs veh, ZRANB3 / RFU, CUL4A / Fold change vs veh, CUL4A / RFU, CCNY / Fold change vs veh, CCNY / RFU, UFL1 / Fold change vs veh, UFL1 / RFU, COG3 / Fold change vs veh, COG3 / RFU, DIAPH2 / Fold change vs veh, DIAPH2 / RFU, SKA2 / Fold change vs veh, SKA2 / RFU, AFF3 / Fold change vs veh, AFF3 / RFU, LMF1 / Fold change vs veh, LMF1 / RFU, IPO11 / Fold change vs veh, IPO11 / RFU, DFFB / Fold change vs veh, DFFB / RFU, FOXP1 / Fold change vs veh, FOXP1 / RFU, CARD8 / Fold change vs veh, CARD8 / RFU, STRN3 / Fold change vs veh, STRN3 / RFU, ADK / Fold change vs veh, ADK / RFU, RASSF2 / Fold change vs veh, RASSF2 / RFU, WIPF1 / Fold change vs veh, WIPF1 / RFU, LARP1B / Fold change vs veh, LARP1B / RFU, RASA1 / Fold change vs veh, RASA1 / RFU, RB1 / Fold change vs veh, RB1 / RFU, PPFIA1 / Fold change vs veh, PPFIA1 / RFU, MAT2A / Fold change vs veh, MAT2A / RFU, CCT5 / Fold change vs veh, CCT5 / RFU, WDR92 / Fold change vs veh, WDR92 / RFU, CUX1 / Fold change vs veh, CUX1 / RFU, TTC7A / Fold change vs veh, TTC7A / RFU, TMEM135 / Fold change vs veh, TMEM135 / RFU, DEPTOR / Fold change vs veh, DEPTOR / RFU, CPM / Fold change vs veh, CPM / RFU, DNAJB6 / Fold change vs veh, DNAJB6 / RFU, CACNA2D3 / Fold change vs veh, CACNA2D3 / RFU, DTX4 / Fold change vs veh, DTX4 / RFU, TFCP2 / Fold change vs veh, TFCP2 / RFU, GMCL1 /// GMCL1P1 / Fold change vs veh, GMCL1 /// GMCL1P1 / RFU, AEBP2 / Fold change vs veh, AEBP2 / RFU, SNHG1 /// SNORD22 /// SNORD25 /// SNORD26 /// SNORD27 /// SNORD28 /// SNORD29 /// SNORD31 / Fold change vs veh, SNHG1 /// SNORD22 /// SNORD25 /// SNORD26 /// SNORD27 /// SNORD28 /// SNORD29 /// SNORD31 / Fold change (Aza/veh), C12orf56 (ProbeSet 11735607_a_at) / Fold change (ACY-1035/veh), C12orf56 (ProbeSet 11735607_a_at) / Fold change (Aza/veh), FGFR1OP (ProbeSet 11751329_s_at) / Fold change (ACY-1035/veh), FGFR1OP (ProbeSet 11751329_s_at) / Fold change (Aza/veh), VPS36 (ProbeSet 11739960_a_at) / Fold change (ACY-1035/veh), VPS36 (ProbeSet 11739960_a_at) / RFU SYPL1 (11715823_x_at) / Fold change /veh SYPL1 (11715823_x_at) / RFU IGFBP7 (11715501_s_at) / Fold change /veh IGFBP7 (11715501_s_at) / RFU REEP3 (11722064_at) / Fold change /veh REEP3 (11722064_at) / RFU IGLL1 (11728026_x_at) / Fold change /veh IGLL1 (11728026_x_at): dose or concentration left out as unconfirmed
Conditions: ProbeSet 11739106_a_at; LIST B

Nc1ncn([C@@H]2O[C@H](CO)[C@@H](O)[C@H]2O)c(=O)n1 [azacitidine]
RFU, TMEM33: 268.42 RFU
